Results reported in patent US20100261711A1, “SELECTIVE ANTICONVULSANT AGENTS AND THEIR USES” (WiSys Technology Foundation, priority 2009, published 2010).

Columns and labels:
[1] = system: Metrazol-induced clonic seizures; test: Subcutaneous Metrazol test (scMet), rats; type: in vivo; settings: Rat IP, 100 mg/kg
Experimental: (§1) The benzodiazepine derivative compounds selective for GABAa receptor subunits were tested for the ability to suppress seizures in several standard rat and mouse models of epilepsy. […] The standard models incorporated into anticonvulsant screening include the maximal electroshock test (MES), the subcutaneous Metrazol test (scMet), and evaluations of toxicity (TOX). The data for each condition is presented as a ratio of either the number of animals protected or toxic (loss of locomotor activity) over the number of animals tested at a given time point and dose.
(§2) Subcutaneous injection of the convulsant Metrazol produces clonic seizures in laboratory animals. […] Animals are pretreated with various doses of the test compound (in a similar manner to the MES test, although a dose of 50 mg/kg (po) is the standard for Test 2 scMet). At the previously determined TPE of the test compound, the dose of Metrazol which will induce convulsions in 97% of animals (CD97: 85 mg/kg mice) is injected into a loose fold of skin in the midline of the neck. […] An episode of clonic spasms, approximately 3-5 seconds, of the fore and/or hindlimbs, jaws, or vibrissae is taken as the endpoint.

[2] = system: minimal muscular or neurological impairment; test: Toxicity (TOX), rotorod procedure, mice; type: in vivo
Experimental: as §1
(§3) To assess a compound's undesirable side effects (toxicity), animals are monitored for overt signs of impaired neurological or muscular function. […] When a mouse is placed on a rod that rotates at a speed of 6 rpm, the animal can maintain its equilibrium for long periods of time. The animal is considered toxic if it falls off this rotating rod three times during a 1-min period. In rats, minimal motor deficit is indicated by ataxia, which is manifested by an abnormal, uncoordinated gait. Rats used for evaluating toxicity are examined before the test drug is administered, since individual animals may have peculiarities in gait, equilibrium, placing response, etc., which might be attributed erroneously to the test substance.

MES-induced seizures = test: Maximal electroshock test (MES), mice; type: in vivo; settings: Mice IP, 100 mg/kg
Experimental: as §1
The MES is a model for generalized tonic-clonic seizures and provides an indication of a compound's ability to prevent seizure spread when all neuronal circuits in the brain are maximally active. These seizures are highly reproducible and are electrophysiologically consistent with human seizures. For all tests based on MES convulsions, 60 Hz of alternating current (50 mA in mice, 150 in rats) is delivered for by corneal electrodes which have been primed with an electrolyte solution containing an anesthetic agent (0.5% tetracaine HCL). For Test 1, mice are tested at various intervals following doses of 30, 100 and 300 mg/kg of test compound given by ip injection of a volume of 0.01 mL/g. In Test 2, rats are tested after a dose of 30 mg/kg (po) in a volume of 0.04 mL/g. Test 8 uses varying doses administered via i.p. injection, again in a volume of 0.04 ml/g. […] In Antiepileptic Drugs, Levy, R. H. M., Meldrum, B. S., Eds.; Raven Press: New York, pp 99-110, 1995b.).

[3] = system: Metrazol-induced clonic seizures; test: Subcutaneous Metrazol test (scMet), mice; type: in vivo
Experimental: as §1, §2

[4] = system: minimal motor deficit (ataxia, abnormal gait); test: Toxicity (TOX), minimal motor deficit, rats; type: in vivo; settings: Rat IP, 100 mg/kg
Experimental: as §1, §3

[5] = Mice, 50 mg/kg PO (Mice IP), 0.5 hr
[6] = Mice, 50 mg/kg PO (Mice IP), 4.0 hr

O=C(OCC(F)(F)F)c1ncn2c1CN=C(c1ccccc1)c1cc(Br)ccc1-2
melting point: 202 to 204 °C

CN1C(=O)CN=C(c2ccccn2)c2cc(C#C[Si](C)(C)C)ccc21
melting point: 194 to 195 °C

C#Cc1ccc2c(c1)C(c1ccccn1)=NCC(=O)N2C
melting point: 190 to 191 °C

C#Cc1ccc2c(c1)C(c1ccccc1)=NCc1c(C(=O)OCC)ncn1-2 [XHe-II-053 (7), Ethyl 8-acetylenyl-6-phenyl-4H-benzo[f]imidazo[1,5-a][1,4]diazepine-3-carboxylate]
scMet, animals protected/tested ([1]; 0.5 hr): 1/4 | scMet, animals protected/tested ([1]; 4.0 hr): 0/4 | TOX (Rotorod Test), animals toxic/tested ([2]; Mice IP, 100 mg/kg, 0.5 hr): 0/8 | TOX (Rotorod Test), animals toxic/tested ([2]; Mice IP, 100 mg/kg, 4.0 hr): 0/4 | TOX (Rotorod Test), animals toxic/tested [2, 5]: 2/4 | TOX (Rotorod Test), animals toxic/tested [2, 6]: 0/4 | MES, animals protected/tested (MES-induced seizures; 0.5 hr): 0/3 | MES, animals protected/tested (MES-induced seizures; 4.0 hr): 0/3 | scMet, animals protected/tested ([3]; Mice IP, 100 mg/kg, 0.5 hr): 0/1 | scMet, animals protected/tested ([3]; Mice IP, 100 mg/kg, 4.0 hr): 0/1 | scMet, animals protected/tested [3, 5]: 1/4 | scMet, animals protected/tested [3, 6]: 0/4 | TOX (Rotorod Test), animals toxic/tested ([4]; 0.5 hr): 2/4 | TOX (Rotorod Test), animals toxic/tested ([4]; 4.0 hr): 0/4

CNC1=Nc2ccc(C#C[Si](C)(C)C)cc2C(c2ccccc2)=NC1
melting point: 210 to 211 °C

CCOC(=O)c1ncn2c1CN=C(c1ccccn1)c1cc(C#C[Si](C)(C)C)ccc1-2
melting point: 205 to 206 °C

O=C(OCC(Cl)(Cl)Cl)c1ncn2c1CN=C(c1ccccc1)c1cc(Br)ccc1-2
melting point: 113 to 116 °C

C[Si](C)(C)C#Cc1ccc2c(c1)C(c1ccccn1)=NCC(=O)N2
melting point: 242 to 243 °C
